Our source for the TGI and GI50 values is PubChem BioAssay (NCI).

Where “and” joins values, the source holds several entries; their conditions need not be identical. Equal entries are not always repeated.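 Each compound was tested at five concentrations against cells in 96-well plates for 48 hours. GI50 is the concentration that inhibits growth by half. Definition used: TGI = concentration required for complete inhibition of growth.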

Some test systems named below: HCC-2998 colon; HCT-116 colon; HOP-92 NSCLC; NCI-H460 lung; OVCAR-5 ovarian; SF-268 CNS; SF-295 CNS; SK-MEL-28 melanoma; TK-10 renal; UACC-62 melanoma; UO-31 renal.
Common to all, as to assay: NCI-60 cell line screen, 48 h

For the compound `COc1ccccc1C1c2cc3c(cc2OC2(OC)COC(=O)C12)OCO3` (stereo not given), the TGI was greater than 63.8 µM in the test with HCC-2998 colon; greater than 80.9 µM with HCT-116 colon; greater than 93.8 µM in the test with HOP-92 NSCLC; greater than 100 µM in the test with NCI-H460 lung; greater than 100 µM with OVCAR-5 ovarian; 83.9 µM with SF-268 CNS. Moreover, the TGI was 63.9 µM in the test on SF-295 CNS; 44.2 µM with SK-MEL-28 melanoma; greater than 92.4 µM with TK-10 renal; 60.1 µM in the test with UACC-62 melanoma; 65.6 µM in the test on UO-31 renal.

Regarding `O=C(CCc1cc(O)cc(O)c1)NCCc1cc(O)cc(OCc2ccccc2)c1`, the TGI in the test on HCC-2998 colon was 39.1 µM; with HCT-116 colon, greater than 100 µM; with HOP-92 NSCLC it was greater than 100 µM; with NCI-H460 lung it was 47.3 µM; with OVCAR-5 ovarian, greater than 100 µM; in the test with SF-268 CNS, greater than 100 µM. The TGI with SF-295 CNS, in the test on SK-MEL-28 melanoma, with TK-10 renal, with UACC-62 melanoma and in the test with UO-31 renal was greater than 100 µM throughout.

`Cc1cccc2sc(NC(=O)NS(=O)(=O)n3cnc4ccccc43)nc12`: the TGI is 30.3 µM with HCC-2998 colon; 99.3 µM in the test on HCT-116 colon; 38.7 µM in the test with HOP-92 NSCLC; greater than 100 µM with NCI-H460 lung; 89.4 µM in the test with OVCAR-5 ovarian; greater than 100 µM in the test on SF-268 CNS. The TGI in the test with SF-295 CNS was 50.1 µM; in the test on SK-MEL-28 melanoma it was greater than 100 µM; in the test on TK-10 renal, greater than 100 µM; in the test on UACC-62 melanoma, 34.3 µM; in the test on UO-31 renal, 61.5 µM.

`O=C(CSCC(=O)N/N=C/c1cccc(O)c1)N/N=C/c1cccc(O)c1`: the TGI in the test on HCC-2998 colon, in the test on HCT-116 colon, in the test on HOP-92 NSCLC, in the test with NCI-H460 lung, in the test on OVCAR-5 ovarian and with SF-268 CNS was greater than 100 µM in each case. The TGI in the test with SF-295 CNS, in the test with SK-MEL-28 melanoma, with TK-10 renal, with UACC-62 melanoma and in the test with UO-31 renal was greater than 100 µM each time.

`Cn1c(CNc2ccc(-c3n[nH]c(=S)n3C)cc2)n[nH]c1=S`: the TGI in the test on HCC-2998 colon, with HCT-116 colon, in the test on HOP-92 NSCLC, with NCI-H460 lung, with OVCAR-5 ovarian and in the test on SF-268 CNS was greater than 100 µM throughout. The TGI in the test with SF-295 CNS, with SK-MEL-28 melanoma, in the test with TK-10 renal and in the test on UO-31 renal was greater than 100 µM throughout.

On to `COC(=O)[C@@H]1[C@@H]2NC(=S)N[C@@]1(C)Oc1ccccc12`, for which the TGI in the test with HCC-2998 colon, with HCT-116 colon, in the test with HOP-92 NSCLC, in the test with NCI-H460 lung, in the test on OVCAR-5 ovarian and in the test with SF-268 CNS was greater than 100 µM each time. Moreover, the TGI in the test with SF-295 CNS, in the test with SK-MEL-28 melanoma, with TK-10 renal, in the test with UACC-62 melanoma and in the test on UO-31 renal was greater than 100 µM throughout.

On to `CCOC(=O)c1cn(CC)c(=O)n2c1nc1ccccc12`, for which the TGI with HCC-2998 colon, in the test on HCT-116 colon, in the test on HOP-92 NSCLC, in the test with NCI-H460 lung, with OVCAR-5 ovarian and in the test with SF-295 CNS was greater than 100 µM each time. In addition, the figures for the TGI with SK-MEL-28 melanoma, in the test on UACC-62 melanoma and with UO-31 renal were greater than 100 µM, greater than 100 µM and 10.2 µM, respectively.

Take `C=C1CC[C@@H](CCC2CCC3(OC2)O[C@]2(O)CC[C@@]3(C)OC2(C)C)C(C)(C)[C@H]1C/C=C1\CCOC1=O` (stereo not given in full): the TGI in the test with HCC-2998 colon is greater than 53.3 µM; in the test on HCT-116 colon it was 22.5 µM; with HOP-92 NSCLC, 66.4 µM; in the test with NCI-H460 lung, 82.7 µM; in the test with OVCAR-5 ovarian, greater than 100 µM; in the test on SF-268 CNS it was greater than 100 µM. For the same compound, the TGI was greater than 100 µM in the test with SK-MEL-28 melanoma, greater than 93.1 µM with TK-10 renal, greater than 100 µM in the test with UACC-62 melanoma and greater than 100 µM in the test with UO-31 renal.

Consider `CC1(C)O[C@@H]2[C@@H](COC(C)(C)O[C@H]2C2SCCCS2)O1`, for which the TGI in the test on HCC-2998 colon, with HCT-116 colon, in the test on HOP-92 NSCLC, with NCI-H460 lung, in the test on OVCAR-5 ovarian and in the test with SF-268 CNS was greater than 100 µM each time. Further, the TGI with SF-295 CNS, in the test with SK-MEL-28 melanoma, in the test with UACC-62 melanoma and in the test with UO-31 renal was greater than 100 µM throughout.

`Cc1ccc(S[C@@](C=O)(NC(=O)OCc2ccccc2)C(F)(F)F)cc1`: the TGI in the test with HCC-2998 colon is greater than 100 µM; with HCT-116 colon, 36.7 µM; in the test with HOP-92 NSCLC, 65.3 µM; in the test with NCI-H460 lung, 79.3 µM; with OVCAR-5 ovarian, 54.8 µM; with SF-268 CNS it was greater than 100 µM. Also, the TGI in the test with SF-295 CNS was greater than 100 µM; in the test with SK-MEL-28 melanoma, 67.1 µM; in the test with UACC-62 melanoma, 40.4 µM; in the test with UO-31 renal it was 36.6 µM.

Regarding `CN=c1sc2c(n1C)C(=O)c1ccccc1C2=O`, the TGI in the test with HCC-2998 colon was 20.4 µM; in the test with HCT-116 colon, 9.1 µM; in the test on HOP-92 NSCLC, 29.9 µM; with NCI-H460 lung it was 8.01 µM; in the test with OVCAR-5 ovarian, 9.26 µM; in the test with SF-268 CNS it was 14.5 µM. For the same compound, the TGI with SF-295 CNS worked out at 3.77 µM; in the test on SK-MEL-28 melanoma, 3.61 µM; with TK-10 renal, 35.6 µM; in the test on UO-31 renal it was 19.6 µM.

Turning to `Cc1ccc(OCC2OC(n3cnc4c(Cl)nc(Nc5cc(Cl)cc(Cl)c5)nc43)CC2Oc2ccc(C)cc2)cc1` (stereo not given), the TGI with HCC-2998 colon, in the test with HCT-116 colon, with HOP-92 NSCLC, in the test with NCI-H460 lung, with OVCAR-5 ovarian and in the test on SF-268 CNS was greater than 100 µM each time. For the same compound, the TGI in the test on SF-295 CNS, in the test on SK-MEL-28 melanoma, in the test with UACC-62 melanoma and in the test with UO-31 renal was greater than 100 µM throughout.

With `COc1cc([C@@H]2c3cc4c(cc3[C@@H](Nc3ccc(NC(=O)c5cc([N+](=O)[O-])cn5C)cc3)[C@H]3COC(=O)[C@H]23)OCO4)cc(OC)c1O`, the TGI with HCC-2998 colon was 0.8 µM and 0.872 µM; with HCT-116 colon it was > 100 µM and 10 µM; with HOP-92 NSCLC it was 39.9 µM and 19.7 µM; in the test with NCI-H460 lung, 0.174 µM and 0.0745 µM; in the test with OVCAR-5 ovarian it was 10.4 µM; in the test on SF-268 CNS, greater than 33.5 µM. The TGI with SK-MEL-28 melanoma was greater than 100 µM; in the test with TK-10 renal, 6.15 µM and 2.95 µM; in the test on UO-31 renal it was 0.841 µM and 0.825 µM. Besides, the GI50 was 0.0549 µM with HOP-92 NSCLC; 0.0513 µM and 0.0793 µM in the test on SF-295 CNS.
